Literature values as cited in US11648202B2, “Hydroxychloroquine sulfate formulations and methods for preparation and use thereof” (Research Triangle Institute, priority 2017, dated 2023).
Counter-ions that a name gives are not always drawn.

In the case of `CCN(CCO)CCCC(C)Nc1ccnc2cc(Cl)ccc12` (stereo not shown) [HCQS, hydroxychloroquine sulfate], the “pKa of the amine” value is given as “about 9.4”.
